Source: patent US9656228B2, “Device and method for making solid beads” (Midatech Pharma (Wales) Limited, priority 2008, dated 2017)

Legend:
[1] = Entrapment of active agent in PLGA beads with different anti-solvents, amount retained by HPLC and/or NMR; type: physicochemical; design: % active agent retained in solid beads: concentration or dose not given beside the values; conditions: for % active agent retained in solid beads: 50:50 PLGA P2191 beads
Procedure: The entrapment of pharmaceutically active compound was investigated to determine the effect of using different anti-solvents.
The general methodology described above was used. Leuprolide acetate dissolved in DMSO/PLGA mixture at between 1-5 mg/ml of solution. The 50:50 lactide/glycolide polymer P2191 used in Example 3 was used in this Example, at a concentration of 10% w/v.
The flow rates were as used in Example 1. On entering the cooling part of the device, the functional fluid formed frozen droplets. Desolvation of the frozen droplets caused the formation of solid beads.
Various anti-solvents were investigated to determine the effect of the anti-solvent on the amount of active agent (leuprolide acetate) retained in the beads. HPLC and/or NMR were used to determine the amount of leuprolide acetate retained.

[2] = Dissolution in warm water of particles precipitated from 10% w/v aqueous solution added dropwise to ethanol; type: physicochemical; conditions: particles/precipitate formed in ethanol from 10% w/v solution in water
Procedure: It is anticipated that such droplets may be of particular use in assays, since the saccharide would be readily soluble in water or aqueous solution. Solutions of 10% w/v of mannitol and dextran in water were prepared. The solutions were then added dropwise to ethanol. The dextran solution produced amorphous particles in ethanol. […] It is anticipated that a solution comprising both mannitol and dextran may be beneficial in that dextran appears to be suitable for forming discrete particles and mannitol may well be a suitable bulking agent. Furthermore, the mannitol may give the beads a more manageable consistency. Attempts were made to make solid beads from the polyol solutions using the apparatus of FIGS. 1-4. […] It is thought that further cooling of the apparatus is required in order to freeze the droplets. This may be achieved, for example, by improving the cooling capability of the cooler. A solution of 10% w/v of mannitol in dimethyl sulphoxide (DMSO) was prepared. […] It is therefore anticipated that droplets made from this solution would freeze using the apparatus of FIGS. 1 to 4, and that solvent may be extracted from the frozen droplets using an anti-solvent, such as ethanol. As mentioned above, it is anticipated that the saccharide-based droplets may be used in assays. […]

Row | Compound | % active agent retained in solid beads ([1]; anti-solvent Ethanol and pentanol) [%] | % active agent retained in solid beads ([1]; anti-solvent Heptanol (batch 1)) [%] | % active agent retained in solid beads ([1]; anti-solvent Octanol:ethanol (80:20)) [%] | % active agent retained in solid beads ([1]; anti-solvent Octanol:ethanol (90:10)) [%] | % active agent retained in solid beads ([1]; anti-solvent Pentane) [%] | % active agent retained in solid beads ([1]; anti-solvent Pentanol) [%] | retention of the active ([1]; lactide/glycolide polymer as bead polymer, various C3 to C8 alcohols as anti-solvent) [%] | dissolution in warm water [2]
1 | CCNC(=O)[C@@H]1CCCN1C(=O)[C@H](CCCNC(=N)N)NC(=O)[C@H](CC(C)C)NC(=O)[C@@H](CC(C)C)NC(=O)[C@H](Cc1ccc(O)cc1)NC(=O)[C@H](CO)NC(=O)[C@H](Cc1c[nH]c2ccccc12)NC(=O)[C@H](Cc1c[nH]cn1)NC(=O)[C@@H]1CCC(=O)N1 [leuprolide acetate, Leuprolide acetate] | 63 | 78 | 76 | 84 | 94 | 92 | 60 to 95 | 
2 | OC[C@@H](O)[C@@H](O)[C@H](O)[C@H](O)CO [mannitol] |  |  |  |  |  |  |  | dissolved in warm water
3 | dextran |  |  |  |  |  |  |  | readily dissolved in warm water
